Experimental findings from patent US20130225517A1, “Therapeutic Compounds” (University of Iowa Research Foundation, priority 2012, published 2013) are described below.

Read-outs that look alike come from different tables or passages of the source.

In experiment [1] the target is T1, Dnmt1 (Homo sapiens, UniProt P26358). Put plainly: Glal restriction endonuclease-coupled DNA methylation assay (Test A). In kind it is biochemical. The source says:
A Glal restriction endonuclease-coupled DNA methylation assay was used to assess Dnmt1 activity (Syeda et al, J Biol Chem 2011, 286, 15344-15351). Upon methylation of the DNA substrate by Dnmt1, the DNA substrate is cleaved by Glal, freeing a 5′ fluorophore from the 3′ quencher, and generating a fluorescence signal. Inhibition of Dnmt1 results in a loss of fluorescence generation.
A Glal restriction endonuclease-coupled DNA methylation assay to assess Dnmt1 activity (Syeda et al, J Biol Chem 2011, 286, 15344-15351). Upon methylation of the DNA substrate by Dnmt1, the DNA substrate is cleaved by Glal, freeing a 5′ fluorophore from the 3′ quencher, and generating a fluorescence signal. Inhibition of Dnmt1 results in a loss of fluorescence generation.
First, laccaic acid was screened against the methyl-specific restriction endonuclease Glal (SibEnzyme, West Roxbury, Mass.) to ensure that the compound was not inhibiting Glal rather than Dnmt1. […] Increasing concentrations of laccaic acid A were used in the endonuclease-coupled DNA methylation assay to determine an IC50 value for the compound. […] Lastly, differential scanning fluorimetry was used to determine if laccaic acid A was a direct binder of Dnmt1 in the absence of the DNA or S-adenosyl methionine substrate.

Experiment [2] addresses T1, Dnmt1. The experiment is described as follows: Differential scanning fluorimetry, direct binding to Dnmt1. Particulars: increase from 44° C.; absence of the DNA or S-adenosyl methionine substrate. The method, then: (§1) Laccaic acid A was further validated as a Dnmt1 inhibitor in three assays. First, laccaic acid was screened against the methyl-specific restriction endonuclease Glal (SibEnzyme, West Roxbury, Mass.) to ensure that the compound was not inhibiting Glal rather than Dnmt1. Under all conditions tested, Glal had full activity in the presence of laccaic acid A. Next, the concentration dependence of laccaic acid A inhibition on Dnmt1 activity was assessed. Increasing concentrations of laccaic acid A were used in the endonuclease-coupled DNA methylation assay to determine an IC50 value for the compound. Laccaic acid A was determined to have an IC50 value of 400 nM. […] Lastly, differential scanning fluorimetry was used to determine if laccaic acid A was a direct binder of Dnmt1 in the absence of the DNA or S-adenosyl methionine substrate.

Experiment [3] deals with methyl-specific restriction endonuclease Glal. Put plainly: Counter-screen against methyl-specific restriction endonuclease Glal. In kind it is biochemical. The conditions noted are these: under all conditions tested. Here is the method:
as §1

Where [4] appears, read: Table 1, Glal restriction endonuclease-coupled DNA methylation assay, read-out: IC50 (μM), Dnmt1 inhibition activity.

T1 sequence (P26358 whole entry): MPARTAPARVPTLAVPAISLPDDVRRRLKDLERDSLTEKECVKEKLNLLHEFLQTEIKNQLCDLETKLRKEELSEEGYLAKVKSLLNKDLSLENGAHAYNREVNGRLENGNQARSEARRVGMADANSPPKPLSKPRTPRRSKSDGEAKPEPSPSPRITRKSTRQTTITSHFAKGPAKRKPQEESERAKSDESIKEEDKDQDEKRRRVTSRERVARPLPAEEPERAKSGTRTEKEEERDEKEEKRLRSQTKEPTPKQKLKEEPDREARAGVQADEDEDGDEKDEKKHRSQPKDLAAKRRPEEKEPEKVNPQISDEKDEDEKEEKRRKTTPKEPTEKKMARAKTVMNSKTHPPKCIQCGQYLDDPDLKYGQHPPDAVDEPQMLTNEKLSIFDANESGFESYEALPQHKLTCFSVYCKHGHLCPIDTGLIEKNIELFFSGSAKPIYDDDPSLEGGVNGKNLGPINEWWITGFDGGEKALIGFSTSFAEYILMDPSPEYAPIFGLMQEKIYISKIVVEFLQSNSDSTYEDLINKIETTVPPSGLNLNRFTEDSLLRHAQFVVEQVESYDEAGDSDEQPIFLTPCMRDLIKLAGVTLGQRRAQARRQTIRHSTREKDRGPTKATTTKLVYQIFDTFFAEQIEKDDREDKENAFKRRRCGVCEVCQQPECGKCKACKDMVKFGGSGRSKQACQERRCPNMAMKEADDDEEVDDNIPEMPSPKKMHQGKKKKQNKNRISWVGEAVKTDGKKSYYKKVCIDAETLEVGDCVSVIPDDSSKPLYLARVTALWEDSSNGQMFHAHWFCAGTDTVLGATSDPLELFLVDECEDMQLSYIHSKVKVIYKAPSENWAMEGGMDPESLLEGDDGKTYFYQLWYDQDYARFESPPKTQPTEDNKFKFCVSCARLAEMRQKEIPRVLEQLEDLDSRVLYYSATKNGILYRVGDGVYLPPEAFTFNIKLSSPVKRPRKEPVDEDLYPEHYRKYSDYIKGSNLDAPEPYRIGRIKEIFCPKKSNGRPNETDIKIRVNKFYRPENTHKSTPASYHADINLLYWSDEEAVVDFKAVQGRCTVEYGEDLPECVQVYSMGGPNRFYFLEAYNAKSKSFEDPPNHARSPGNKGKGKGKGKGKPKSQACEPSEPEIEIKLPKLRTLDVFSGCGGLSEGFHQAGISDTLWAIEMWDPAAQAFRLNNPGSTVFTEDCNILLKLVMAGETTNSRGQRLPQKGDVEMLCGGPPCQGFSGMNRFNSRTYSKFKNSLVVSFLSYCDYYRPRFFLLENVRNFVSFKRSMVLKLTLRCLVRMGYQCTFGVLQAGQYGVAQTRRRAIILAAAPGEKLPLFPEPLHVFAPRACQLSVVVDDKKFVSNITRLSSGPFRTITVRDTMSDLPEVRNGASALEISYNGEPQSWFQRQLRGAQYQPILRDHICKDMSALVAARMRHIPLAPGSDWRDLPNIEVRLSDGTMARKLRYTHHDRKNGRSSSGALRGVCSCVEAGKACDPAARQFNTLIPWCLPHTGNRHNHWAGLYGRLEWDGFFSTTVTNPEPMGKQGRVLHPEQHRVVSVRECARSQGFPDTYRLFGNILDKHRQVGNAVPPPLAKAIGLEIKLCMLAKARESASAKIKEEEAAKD

As for `CC(=O)NCCc1ccc(O)c(-c2c(O)c(O)c3c(c2O)C(=O)c2c(cc(O)c(C(=O)O)c2C(=O)O)C3=O)c1` [II, Laccaic Acid A], the IC50 in experiment [1] (setting [4]) amounted to 2.1 µM; in experiment [1] (increasing concentrations in the endonuclease-coupled DNA methylation assay, read-out: IC50 value, inhibition of Dnmt1 activity), 0.4 µM. Besides, in experiment [1] (ratio of IC50 values, versus SG14027), the “fold more potent at inhibition of Dnmt1 than SG14027” value turned out to be 5 fold. Also, the “outcome of high throughput screen for inhibitors of Dnmt1 activity” value in experiment [1] (screen of the Spectrum collection (Microsource)) is recorded as “hit”. Further, in experiment [2], the “observed melting temperature of Dnmt1 after addition of compound” value was determined as 45.7 °C. Besides, in experiment [3], the “Glal activity in the presence of compound” value is reported as “full activity”.

As for `Oc1cc(Cl)ccc1Oc1ccc(Cl)cc1Cl` [III, Triclosan, reference compound], the IC50 in experiment [1] (setting [4]) worked out at 3.8 µM.

Take `O=C(O)c1cc(O)c2c(c1)[C@@H]([C@H]1c3cc(C(=O)O)cc(O)c3C(=O)c3c(O[C@H]4O[C@H](CO)[C@@H](O)[C@H](O)[C@H]4O)cccc31)c1cccc(O[C@H]3O[C@H](CO)[C@@H](O)[C@H](O)[C@H]3O)c1C2=O` [IV, Sennoside A, reference compound]: the IC50 in experiment [1] (setting [4]) amounted to 0.45 µM.

As for `O=C(O)C(S)C(S)C(=O)O` (centres unmarked) [IX, 2,3-Dimercaptosuccinic Acid, reference compound], in experiment [1] (setting [4]), the IC50 was determined as 0.33 µM.

In the case of `O=C(O)c1cc(O)c2c(c1)[C@@H]([C@@H]1c3cc(C(=O)O)cc(O)c3C(=O)c3c(O[C@H]4O[C@H](CO)[C@@H](O)[C@H](O)[C@H]4O)cccc31)c1cccc(O[C@H]3O[C@H](CO)[C@@H](O)[C@H](O)[C@H]3O)c1C2=O` [V, Sennoside B, reference compound], in experiment [1] (setting [4]), the IC50 worked out at 0.45 µM.

Consider `O=C1c2ccccc2C(=O)c2c1ccc(O)c2O` [VI, Alizarin], for which, in experiment [1] (setting [4]), the IC50 turned out to be 11 µM.

As to `O=c1c(O)c(-c2ccc(O)c(O)c2)oc2c(O)c(O)cc(O)c12` [VII, Gossypetin], the IC50 in experiment [1] (setting [4]) amounted to 2.9 µM.

Consider `O=C1C=CC(=O)c2c(O)cccc21` [VIII, Juglone], for which the IC50 in experiment [1] (setting [4]) was 1.7 µM.

`CSc1nc2cc(Cl)c(Oc3cccc(Cl)c3Cl)cc2[nH]1` [XI, Triclabendazole, reference compound]: in experiment [1] (setting [4]), the IC50 was 6.1 µM.
